Laboratory results from US20210230213A1, “ARAMCHOL SALTS” (GALMED RESEARCH AND DEVELOPMENT LTD., priority 2013, published 2021).
Converted amounts (≈) assume the structure as drawn.

Key:
[1] = Stability of Aramchol free acid; assay type: physicochemical; conditions: 6 months 40° C./75% RH; 12 months 25° C./60% RH; 30° C./65% RH
Procedure: For Aramchol free acid, 6 months stability data have been generated at 40° C./75% relative humidity and for 12 months at real time 25° C./60% relative humidity and also at the intermediate conditions of 30° C./65% relative humidity.

[2] = In vivo permeability / PK after intrajejunal administration in cannulated rats (Example 7); design: species or system male Wistar rats; conditions: rat
Procedure: An in vivo permeability study of Aramchol salts was performed in male Wistar rats cannulated in the jugular vein and in the jejunum. Intestinal cannulation was performed in order to bypass protonation of Aramchol salts in acidic gastric pH. Aramchol salts solubilized in PBS (30 mg/mL) were administered to rats intestine (jejunum) in a dose of 100 mg/kg (based on free acid), via a cannula inserted into the proximal side of the jejunum. A suspension of Aramchol free acid (in PBS, 30 mg/mL) was administered via the same route and was used as control. Blood samples were withdrawn via a cannula inserted into jugular vein at pre-determined time points (pre-dose, 1 hr, 2 hr, 4 hr, 8 hr, 12 hr, 24 hr post dose). Plasma concentrations of Aramchol (free acid) were measured using a liquid chromatography-tandem mass spectrometry (LC-MS-MS) method by Analyst Bioanalytical Laboratories, Israel. All PK parameters were calculated using non-compartmental analysis. Only those plasma concentrations equal to or greater than the lower limit of quantitation (LOQ) (48.66 ng/mL) were used in the analysis. Plasma concentrations <LOQ that occurred from pre-dose to the first concentration ≥LOQ were treated as 0. Actual sampling times were used for all pharmacokinetic analyses. The following PK parameters were calculated: maximum plasma concentration (Cmax), time to Cmax (Tmax), area under the plasma concentration-time curve from time of administration until the last plasma concentration (AUC0-4), AUC/dose, elimination half-life (t½). Cmax and Tmax were taken directly from the data. Area under the curve from zero to the final sample with a concentration ≥LOQ. AUC0-4 was calculated using the linear trapezoidal method.

[3] = Saturated solubility in buffer solutions and bio-relevant media at 37° C. (Example 6); assay type: physicochemical; conditions: for solubility at 24 h / solubility at 30 min: thermodynamic from solid
[4] = Solubility of Aramchol (free acid) in aqueous media; assay type: physicochemical
[5] = Fill weight of size 00 HPMC capsule; assay type: physicochemical; conditions: hard HPMC capsule size 00, filled as is without tapping
From the text: Aramchol (free acid), and the three salts were filled as are, into hard HPMC (Hypromellose; Capsule size 00 (CapsCanada, ON, Canada) without taping, fill weight is presented in table 9.

[6] = Clinical study, plasma Aramchol at steady state after 300 mg BID; assay type: in vivo, humans; conditions: human, po
[7] = Twice daily administration for 10 days of Aramchol and Aramchol meglumine in humans (Example 9); assay type: in vivo; conditions: free acid 300 mg, meglumine salt 383 mg
Procedure: 300 mg aramchol free acid were administered to human subjects twice daily, and 383 mg aramchol meglumine salt were administered to human subjects twice daily, as detailed in FIG. 13.

Bulk and tapped density = assay type: physicochemical
From the text: Measurements of tapped and bulk densities are used to predict the flow properties and compressibility of powders. These two properties are important for manufacture of solid dosage formulations, such as tablets and capsules. Compounds with low values of tapped and bulk densities may be subject to difficulties in tablet compression, and therefore may require additional processing for improving flow properties. […] Therefore, to improve flow properties a wet granulation process is used prior to tablet compression.

in vivo = conditions: dog, in vivo
Procedure: Capsules containing 100 mg of Aramchol were dosed to dogs as either the free acid or the meglumine salt.
The complete data-set across all animals and time-points for each dose form (free acid or meglumine salt) were fit to single compartment PK models with first order rate of absorption Ka (h−1) and elimination parameterised by CL and V (rate of elimination=CL/V, h−1). For the meglumine salt group, the first dose data for M5 was removed.
Capsules containing 100 mg of Aramchol were dosed to dogs as either the free acid or the meglumine salt BID. […] A clinical study that investigated the plasma concentration of Aramchol after oral dosing of 300 mg BID at steady state was conducted in 16 healthy volunteers.

CCCCCCCCCCCCCCCCCCCC(=O)N[C@H]1CCC2(C)C(CC(O)C3C2C[C@H](O)C2(C)C(C(C)CCC(=O)O)CCC32)C1 (stereo in doubt) [Aramchol (free acid), 3β-arachidylamido-7α,12α-dihydroxy-5β-cholan-24-oic acid, reference compound]
stability [1]: no significant changes to any parameters | Half-life ([2]; male, Wistar, plasma, 100 mg/kg, mean ± standard error): 4.5 h | AUC(0-t) ([2]; male, Wistar, plasma, 100 mg/kg, mean ± standard error, read-out: AUC 0-t): 12.1 ± 3.63 µg·h/mL | Tmax ([2]; male, Wistar, plasma, 100 mg/kg, median, read-out: Tmax): 4 h | Cmax ([2]; male, Wistar, 100 mg/kg (based on free acid) in PBS 30 mg/mL, plasma Aramchol (free acid), mean ± standard error, read-out: Cmax): 1360 ± 359 ng/mL | AUC/dose ([2]; 100 mg/kg, mean ± standard error): 124.2 ± 38.9 (5) hr × ng × kg/mL × mg | solubility ([3]; Acetate buffer pH 4.5, 24 h, 37° C.): Not soluble | solubility ([3]; Demi-Water (pH 7.8), 24 h, 37° C.): Not soluble | solubility ([3]; HCl buffer pH 1.2, 24 h, 37° C.): Not soluble | solubility ([3]; Phosphate buffer pH 7.0, 24 h, 37° C.): Not soluble | solubility ([3]; Saline pH 5.5, 24 h, 37° C.): Not soluble | solubility at 24 h ([3]; phosphate buffer, pH 6.5, 24 h): < 1 µg/mL | solubility at 30 min ([3]; FaSSIF (pH 6.5), 37° C.): 50 µg/mL (≈ 71.2 µM) | solubility at 24 h ([3]; FaSSIF (pH 6.5), 24 h, 37° C.): 130 µg/mL (≈ 185 µM) | solubility at 30 min ([3]; FeSSIF (pH 5.0), 37° C.): 660 µg/mL (≈ 940 µM) | solubility at 24 h ([3]; FeSSIF (pH 5.0), 24 h, 37° C.): 310 µg/mL (≈ 442 µM) | solubility ([4]; FeSSIF, pH 5, fessif, read-out: max solubility in FeSSIF): 660 µg/mL (≈ 940 µM) | solubility ([4]; aqueous buffer, buffer pH 6.0, read-out: solubility in buffer at pH 6.0): < 1 µg/mL | fill weight of one 00 size capsule [5]: 0.15 gram | AUC [6]: 114 µg·h/mL | AUCss 0-12 h ([7]; BID for 10 days): 53 µg·h/mL | Cavg ([7]; BID for 10 days): 4154 ng/mL | AUC ([7]; human, blood, BID): 53 µg·h/mL | Bulk density (Bulk and tapped density): 0.15 g/mL | Tapped density (Bulk and tapped density): 0.17 g/mL | AUC0-12 h/AUCinf (in vivo): 0.97 | Ka (in vivo): 0.234 h⁻¹ | V (in vivo): 16893 | clearance (in vivo): 6.82 mL/min | AUC (in vivo; 100 mg): 901 µg·h/mL | AUC(0-inf) (in vivo; AUCinf D1): 241 µg·h/mL | AUC(0-inf) (in vivo; AUCinf from day 11 onwards): 1130 µg·h/mL | Half-life (in vivo; po, 100 mg, Half-life): 25.9 h
